Laboratory results as given in ChEMBL document CHEMBL1201862, “PubChem BioAssay data set” (2004).
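96-well plates; 48 h exposure; 5 concentrations. Endpoints by linear interpolation between flanking doses. Not reached: highest tested concentration assigned. GI50 = concentration required for 50% inhibition of growth.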 Activity calls are given as the source filed them. Rule as the data show it: active = GI50 up to about 1.1 µM and inactive = higher.

Legend:
Assay in all cases: NCI-60 cell line screen, 48 h
SK-OV-3 = test system: SK-OV-3
COLO 205 = test system: COLO 205
OVCAR-5 = test system: OVCAR-5
HOP-62 = test system: HOP-62
NCI-H522 = test system: NCI-H522
HCT-116 = test system: HCT-116
SF-295 = test system: SF-295
NCI/ADR-RES = test system: NCI/ADR-RES
EKVX = test system: EKVX
UACC-62 = test system: UACC-62
CCRF-CEM = test system: CCRF-CEM
HCT-15 = test system: HCT-15
HCC 2998 = test system: HCC 2998
SF-539 = test system: SF-539
SF-268 = test system: SF-268
KM12 = test system: KM12
T47D = test system: T47D
HT-29 = test system: HT-29
NCI-H226 = test system: NCI-H226
OVCAR-4 = test system: OVCAR-4
Malme-3M = test system: Malme-3M
RXF 393 = test system: RXF 393
PC-3 = test system: PC-3
SK-MEL-5 = test system: SK-MEL-5
UACC-257 = test system: UACC-257
MDA-N = test system: MDA-N
SK-MEL-28 = test system: SK-MEL-28
NCI-H460 = test system: NCI-H460
UO-31 = test system: UO-31
MOLT-4 = test system: MOLT-4
IGROV-1 = test system: IGROV-1
Hs-578T = test system: Hs-578T
HL-60 = test system: HL-60
ACHN = test system: ACHN
A549 = test system: A549
BT-549 = test system: BT-549
SNB-19 = test system: SNB-19
DU-145 = test system: DU-145
SN12C = test system: SN12C
OVCAR-8 = test system: OVCAR-8
TK-10 = test system: TK-10
MDA-MB-231 = test system: MDA-MB-231
SNB-75 = test system: SNB-75
U-251 = test system: U-251
M14 = test system: M14
RPMI-8226 = test system: RPMI-8226
HOP-92 = test system: HOP-92
SK-MEL-2 = test system: SK-MEL-2
LOX IMVI = test system: LOX IMVI
MCF7 = test system: MCF7
CAKI-1 = test system: CAKI-1
786-0 = test system: 786-0
SW-620 = test system: SW-620
K562 = test system: K562
SR = test system: SR
MDA-MB-435 = test system: MDA-MB-435

Measured: GI50

COc1ccc(/C=C(\C#N)c2nc3ccccc3c(=O)[nH]2)cc1
54.5 µM: HCT-15
inactive: SK-OV-3 11.3 µM | COLO 205 73.6 µM | OVCAR-5 > 100 µM | HOP-62 10.5 µM | NCI-H522 10.6 µM | HCT-116 5.22 µM | SF-295 20.5 µM | NCI/ADR-RES 20.3 µM | EKVX 59.6 µM | UACC-62 18.4 µM | CCRF-CEM > 100 µM | HCC 2998 49.5 µM | SF-539 12.6 µM | SF-268 13.7 µM | KM12 51.5 µM | T47D 20.6 µM | HT-29 > 100 µM | NCI-H226 27 µM | OVCAR-4 20.3 µM | Malme-3M > 100 µM | RXF 393 15.5 µM | PC-3 38.7 µM | SK-MEL-5 19.5 µM | UACC-257 68.7 µM | MDA-N > 100 µM | SK-MEL-28 > 100 µM | NCI-H460 16.6 µM | UO-31 26.5 µM | MOLT-4 > 100 µM | IGROV-1 30.3 µM | Hs-578T 15.1 µM | HL-60 > 100 µM | ACHN 17.1 µM | A549 45.9 µM | BT-549 15.5 µM | SNB-19 12.9 µM | DU-145 23.1 µM | SN12C 33.6 µM | OVCAR-8 10.6 µM | TK-10 23.3 µM | MDA-MB-231 4.84 µM | SNB-75 23.9 µM | U-251 9.42 µM | M14 30 µM | RPMI-8226 > 100 µM | HOP-92 12.1 µM | SK-MEL-2 27.3 µM | LOX IMVI 43.4 µM | MCF7 34.4 µM | CAKI-1 27.8 µM | 786-0 13.9 µM | SW-620 50.4 µM | K562 > 100 µM | SR 39.4 µM | MDA-MB-435 > 100 µM
